# According to US10793563B2, “GCN2 inhibitors and uses thereof” (Merck Patent GmbH, priority 2018, dated 2020):
# Assays:
# GCN2 kinase = GCN2 kinase (Homo sapiens (Human), UniProt Q9P2K8); test: GCN2 Enzyme Inhibition Assay (Transcreener ADP2 fluorescence polarization); format: biochemical; details: 280 μM ATP, 200 μM (RS)7 peptide, 4 nM GCN2, 25° C.; for Ki: Ki(app)
# Method in brief: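 At 25 °C, GCN2 kinase (typical final concentration 4 nM) and (RS)7 peptide in Tris-HCl pH 7.5 buffer with MgCl2, NaCl and DTT were preincubated with compound for 10 min, then ATP was added for a 1 h reaction. ADP was read by FP with antibody/Alexa633 tracer. Non-linear tight-binding analysis gave IC50 and apparent Ki.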
# [1] = molecular target: intracellular GCN2 (phosphorylation of the GCN2 substrate eIF2α) (Homo sapiens (Human), UniProt Q9P2K8); test: GCN2 Cellular Inhibition Assay (AlphaScreen SureFire P-eIF2α Ser51, borrelidin-treated U2OS cells); format: cell-based; details: 10 μM borrelidin, 1 h, phosphorylated eIF2α Ser51, read-out: GCN2 Biomarker (IC50)
# Method in brief: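 Phospho-eIF2α (Ser51) measured by AlphaScreen SureFire in lysates of U2OS cells stimulated 1 h at 37 °C with 10 μM borrelidin alongside compound, 4-fold dilutions from 40 μM. Inhibition expressed as percent relative to borrelidin-alone controls.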
# GCN2 kinase, sequence (Q9P2K8 whole entry): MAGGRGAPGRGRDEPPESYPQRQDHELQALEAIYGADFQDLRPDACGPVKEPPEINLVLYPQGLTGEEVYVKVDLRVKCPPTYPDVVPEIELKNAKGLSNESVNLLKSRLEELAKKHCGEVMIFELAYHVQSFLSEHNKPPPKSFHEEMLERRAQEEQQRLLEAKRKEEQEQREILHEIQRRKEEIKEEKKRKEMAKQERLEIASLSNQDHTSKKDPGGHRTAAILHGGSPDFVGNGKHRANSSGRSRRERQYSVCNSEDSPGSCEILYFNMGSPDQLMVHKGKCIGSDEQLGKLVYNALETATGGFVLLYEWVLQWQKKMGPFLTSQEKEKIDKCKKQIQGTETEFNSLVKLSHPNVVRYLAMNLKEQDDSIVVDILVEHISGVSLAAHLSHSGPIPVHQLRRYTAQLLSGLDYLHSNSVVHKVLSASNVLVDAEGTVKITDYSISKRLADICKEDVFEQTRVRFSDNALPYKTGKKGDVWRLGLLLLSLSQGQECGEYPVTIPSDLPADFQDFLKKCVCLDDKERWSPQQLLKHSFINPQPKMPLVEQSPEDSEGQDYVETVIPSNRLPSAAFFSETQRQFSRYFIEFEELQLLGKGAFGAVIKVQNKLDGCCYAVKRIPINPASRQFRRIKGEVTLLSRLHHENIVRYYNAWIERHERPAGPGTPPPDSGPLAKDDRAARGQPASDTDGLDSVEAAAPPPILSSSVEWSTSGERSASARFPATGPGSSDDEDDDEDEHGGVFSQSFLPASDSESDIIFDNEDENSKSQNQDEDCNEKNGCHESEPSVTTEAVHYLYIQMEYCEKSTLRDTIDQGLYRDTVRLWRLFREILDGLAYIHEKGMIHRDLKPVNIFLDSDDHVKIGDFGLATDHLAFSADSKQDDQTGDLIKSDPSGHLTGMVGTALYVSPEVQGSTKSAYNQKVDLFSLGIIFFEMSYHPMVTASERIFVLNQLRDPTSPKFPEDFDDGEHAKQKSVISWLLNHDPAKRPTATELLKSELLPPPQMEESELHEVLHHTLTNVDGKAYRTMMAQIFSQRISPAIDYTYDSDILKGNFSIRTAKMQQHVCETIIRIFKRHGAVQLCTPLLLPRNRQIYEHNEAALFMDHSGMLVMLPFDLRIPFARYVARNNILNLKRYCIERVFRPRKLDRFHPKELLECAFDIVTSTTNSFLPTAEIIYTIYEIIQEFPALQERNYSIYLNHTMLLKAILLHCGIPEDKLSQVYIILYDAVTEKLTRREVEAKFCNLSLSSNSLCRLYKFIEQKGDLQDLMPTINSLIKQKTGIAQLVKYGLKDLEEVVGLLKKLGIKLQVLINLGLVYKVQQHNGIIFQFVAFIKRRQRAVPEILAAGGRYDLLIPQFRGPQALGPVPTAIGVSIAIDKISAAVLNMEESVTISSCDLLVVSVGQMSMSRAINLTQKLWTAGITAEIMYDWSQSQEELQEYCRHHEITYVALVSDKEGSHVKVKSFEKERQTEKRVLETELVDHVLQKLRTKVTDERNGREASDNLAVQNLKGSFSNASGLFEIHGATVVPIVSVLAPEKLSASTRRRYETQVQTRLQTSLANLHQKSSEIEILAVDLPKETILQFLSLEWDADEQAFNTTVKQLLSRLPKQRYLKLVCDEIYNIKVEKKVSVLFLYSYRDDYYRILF
# intracellular GCN2 (phosphorylation of the GCN2 substrate eIF2α), sequence (Q9P2K8 whole entry): as above
SMILES,IC50 (GCN2 kinase) [nM],IC50 [1] [nM],Ki (GCN2 kinase) [nM]
"COc1cc(-c2cnc3ccc(Cl)cn23)nc(N2C[C@@H](C)C[C@@H](c3cn[nH]c3)C2)n1 [I-281, 6-chloro-3-(6-methoxy-2-((3S,5S)-3-methyl-5-(1H-pyrazol-4-yl)piperidin-1-yl)pyrimidin-4-yl)imidazo[1,2-a]pyridine]",10 to 100,< 500,–
"CC1CCC(C(=O)O)CN1c1ccnc(-c2cnc3ccc(C(F)(F)F)cn23)n1 (stereo not drawn) [I-201, 6-methyl-1-(2-(6-(trifluoromethyl)imidazo[1,2-a]pyridin-3-yl)pyrimidin-4-yl)piperidine-3-carboxylic acid]",10 to 100,500 to 5000,–
"COc1cc(-c2cnc3ccc(Cl)cn23)nc(N2C[C@H](C)C[C@H](c3cn[nH]c3)C2)n1 [I-279, 6-chloro-3-(6-methoxy-2-((3R,5R)-3-methyl-5-(1H-pyrazol-4-yl)piperidin-1-yl)pyrimidin-4-yl)imidazo[1,2-a]pyridine]",10 to 100,500 to 5000,–
"C[C@H]1C[C@@H](N=S(C)(C)=O)CN(c2nccc(-c3cnc4ccc(Cl)cn34)n2)C1 (stereo in doubt) [I-159, (((3R,5S)-1-(4-(6-chloroimidazo[1,2-a]pyridin-3-yl)pyrimidin-2-yl)-5-methylpiperidin-3-yl)imino)dimethyl-λ6-sulfanone]",10 to 100,< 500,–
"CCOC1(N2CCN(c3ccnc(-c4cnc5ccc(C(F)(F)F)cn45)n3)C(C)C2c2cn[nH]c2)CC1 (stereo not drawn) [I-348, 3-(4-(4-(1-ethoxycyclopropyl)-2-methyl-3-(1H-pyrazol-4-yl)piperazin-1-yl)pyrimidin-2-yl)-6-(trifluoromethyl)imidazo[1,2-a]pyridine]",10 to 100,< 500,–
"CC1(C)CN(c2ccnc(-c3cnc4ccc(C(F)(F)F)cn34)n2)CC2(CN(S(C)(=O)=O)C2)O1 [I-304, 6,6-dimethyl-2-(methylsulfonyl)-8-(2-(6-(trifluoromethyl)imidazo[1,2-a]pyridin-3-yl)pyrimidin-4-yl)-5-oxa-2,8-diazaspiro[3.5]nonane]",10 to 100,500 to 5000,–
"CC(=O)N1CCN(c2ccnc(-c3cnc4ccc(C(F)F)cn34)n2)CC1 [I-14, 1-[4-[2-[6-(Difluoromethyl)imidazo[1,2-a]pyridin-3-yl]pyrimidin-4-yl]piperazin-1-yl]ethanone]",–,500 to 5000,10 to 100
"CC1CN(c2ccnc(-c3cnc4ccc(Cl)cn34)n2)CC(c2cnn(S(C)(=O)=O)c2)N1S(C)(=O)=O (stereo not drawn) [I-301, 6-chloro-3-(4-(3-methyl-4-(methylsulfonyl)-5-(1-(methylsulfonyl)-1H-pyrazol-4-yl)piperazin-1-yl)pyrimidin-2-yl)imidazo[1,2-a]pyridine]",100 to 1000,500 to 5000,–
"OCC1CN(c2ccnc(-c3cnc4ccc(C(F)(F)F)cn34)n2)CCC1O (stereo not drawn) [I-241, 3-(hydroxymethyl)-1-(2-(6-(trifluoromethyl)imidazo[1,2-a]pyridin-3-yl)pyrimidin-4-yl)piperidin-4-ol]",10 to 100,500 to 5000,–
"CC1(F)CCCN(c2ccnc(-c3cnc4ccc(C(F)(F)F)cn34)n2)C1 (stereo not drawn) [I-226, 3-(4-(3-fluoro-3-methylpiperidin-1-yl)pyrimidin-2-yl)-6-(trifluoromethyl)imidazo[1,2-a]pyridine]",100 to 1000,500 to 5000,–
"C[C@@H]1CCN(c2ccnc(-c3cnc4ccc(C(F)(F)F)cn34)n2)CC1F (stereo in doubt) [I-240, 3-(4-((3R,4R)-3-fluoro-4-methylpiperidin-1-yl)pyrimidin-2-yl)-6-(trifluoromethyl)imidazo[1,2-a]pyridine]",100 to 1000,500 to 5000,–
"CS(C)(=O)=NC1CCCN(c2ccnc(-c3cnc4cc(F)c(Cl)cn34)n2)C1 (stereo not drawn) [I-49, ((1-(2-(6-Chloro-7-fluoroimidazo[1,2-a]pyridin-3-yl)pyrimidin-4-yl)piperidin-3-yl)imino)dimethyl-λ^6-sulfanone]",–,> 5000,10 to 100
"OC1(c2ccccc2)CCCN(c2ccnc(-c3cnc4cc(F)c(Cl)cn34)n2)C1 (stereo not drawn) [I-81, 1-[2-(6-Chloro-7-fluoro-imidazo[1,2-a]pyridin-3-yl)-pyrimidin-4-yl]-3-phenyl-piperidin-3-ol]",–,500 to 5000,10 to 100
"O=C1NCC2CN(c3ccnc(-c4cnc5ccc(C(F)(F)F)cn45)n3)CCN12 (stereo not drawn) [I-6, 7-(2-(6-(trifluoromethyl)imidazo[1,2-a]pyridin-3-yl)pyrimidin-4-yl)hexahydroimidazo[1,5-a]pyrazin-3(2H)-one]",–,500 to 5000,10 to 100
"O=C1NCC2CN(c3ccnc(-c4cnc5ccc(C(F)(F)F)cn45)n3)CCN12 (stereo not drawn) [I-5, 7-(2-(6-(Trifluoromethyl)imidazo[1,2-a]pyridin-3-yl)pyrimidin-4-yl)hexahydroimidazo[1,5-a]pyrazin-3(2H)-one]",–,500 to 5000,10 to 100
"NC(=O)[C@H]1CCCN(c2nc(-c3cnc4ccc(C(F)(F)F)cn34)ncc2F)C1 [I-278, (S)-1-(5-fluoro-2-(6-(trifluoromethyl)imidazo[1,2-a]pyridin-3-yl)pyrimidin-4-yl)piperidine-3-carboxamide]",< 10,< 500,–
"NC(=O)C1(C2CCCN(c3ccnc(-c4cnc5ccc(Cl)cn45)n3)C2)CC1 (stereo not drawn) [I-303, 1-(1-(2-(6-chloroimidazo[1,2-a]pyridin-3-yl)pyrimidin-4-yl)piperidin-3-yl)cyclopropane-1-carboxamide]",10 to 100,500 to 5000,–
Cc1noc([C@H]2CN(c3ccnc(-c4cnc5ccc(Cl)cn45)n3)C[C@@H](C)O2)n1 [I-63],–,< 500,< 10
"FC(F)(F)c1ccc2ncc(-c3nccc(N4CCN(Cc5cocn5)C(c5cn[nH]c5)C4)n3)n2c1 (stereo not drawn) [I-353, 4-((2-(1H-pyrazol-4-yl)-4-(2-(6-(trifluoromethyl)imidazo[1,2-a]pyridin-3-yl)pyrimidin-4-yl)piperazin-1-yl)methyl)oxazole]",< 10,< 500,–
"C[C@@H]1C[C@H](N=S(C)(C)=O)CN(c2ccnc(-c3cnc4ccc(C(F)F)cn34)n2)C1 [I-340, (((3 S, 5R)-1-(2-(6-(difluoromethyl)imidazo[1,2-a]pyridin-3-yl)pyrimidin-4-yl)-5-methylpiperidin-3-yl)imino)dimethyl-λ6-sulfanone]",< 10,< 500,–

# The next lines start with the values.
IC50 (GCN2 kinase) [nM],IC50 [1] [nM],Ki (GCN2 kinase) [nM],SMILES
100 to 1000,500 to 5000,–,"C[C@@H]1[C@@H](c2cn[nH]c2)NCCN1c1ccnc(-c2cnc3ccc(C(F)(F)F)cn23)n1 [I-536, 3-(4-((2R,3R)-2-methyl-3-(1H-pyrazol-4-yl)piperazin-1-yl)pyrimidin-2-yl)-6-(trifluoromethyl)imidazo[1,2-a]pyridine]"
100 to 1000,500 to 5000,–,"C[C@@H]1CN(c2ccnc(-c3cnc4ccc(C(F)(F)F)cn34)n2)C[C@H](C)N1C(=O)CC1CCOCC1 [I-464, 1-(cis-2,6-dimethyl-4-(2-(6-(trifluoromethyl)imidazo[1,2-a]pyridin-3-yl)pyrimidin-4-yl)piperazin-1-yl)-2-(tetrahydro-2H-pyran-4-yl)ethan-1-one]"
100 to 1000,500 to 5000,–,Cc1[nH]ncc1[C@@H]1[C@@H](C)N(c2ccnc(-c3cnc4ccc(C(F)(F)F)cn34)n2)CCN1C1COC1 [I-368]
< 10,< 500,–,"FC(F)(F)c1ccc2ncc(-c3nccc(N4CCN(CC5CC5)C(c5cn[nH]c5)C4)n3)n2c1 (stereo not drawn) [I-369, 4-[4-(cyclopropylmethyl)-3-(1H-pyrazol-4-yl)piperazin-1-yl]-2-[6-(trifluoromethyl)imidazo[1,2-a]pyridin-3-yl]pyrimidine]"
100 to 1000,500 to 5000,–,"C[C@@H]1CN(c2ccnc(-c3cnc4ccc(C(F)(F)F)cn34)n2)C[C@H](C)N1C(=O)C1CC1 [I-403, cyclopropyl(cis-2,6-dimethyl-4-(2-(6-(trifluoromethyl)imidazo[1,2-a]pyridin-3-yl)pyrimidin-4-yl)piperazin-1-yl)methanone]"
10 to 100,< 500,–,"FC(F)(F)c1ccc2ncc(-c3nccc(N4CCN(C5CC5)C(c5cn[nH]c5)C4)n3)n2c1 (stereo in doubt) [I-503, (R)-3-(4-(4-cyclopropyl-3-(1H-pyrazol-4-yl)piperazin-1-yl)pyrimidin-2-yl)-6-(trifluoromethyl)imidazo[1,2-a]pyridine]"
< 10,< 500,–,"OCC1CC(N2CCN(c3ccnc(-c4cnc5ccc(C(F)(F)F)cn45)n3)CC2c2cn[nH]c2)C1 (stereo not drawn) [I-390, (3-(2-(1H-pyrazol-4-yl)-4-(2-(6-(trifluoromethyl)imidazo[1,2-a]pyridin-3-yl)pyrimidin-4-yl)piperazin-1-yl)cyclobutyl)methanol]"
10 to 100,< 500,–,"Fc1ccc(CN2CCN(c3ccnc(-c4cnc5ccc(C(F)(F)F)cn45)n3)CC2c2cn[nH]c2)cc1F (stereo not drawn) [I-450, 3-(4-(4-(3,4-difluorobenzyl)-3-(1H-pyrazol-4-yl)piperazin-1-yl)pyrimidin-2-yl)-6-(trifluoromethyl)imidazo[1,2-a]pyridine]"
100 to 1000,500 to 5000,–,"CS(=O)(=O)N1CC2(CCCN(c3ccnc(-c4cnc5ccc(C(F)F)cn45)n3)C2)C1 [I-395, 6-(2-(6-(difluoromethyl)imidazo[1,2-a]pyridin-3-yl)pyrimidin-4-yl)-2-(methylsulfonyl)-2,6-diazaspiro[3.5]nonane]"
10 to 100,500 to 5000,–,"Cn1cc(C(=O)N2CCN(c3ccnc(-c4cnc5ccc(C(F)(F)F)cn45)n3)CC2c2cn[nH]c2)cn1 (stereo not drawn) [I-418, (2-(1H-pyrazol-4-yl)-4-(2-(6-(trifluoromethyl)imidazo[1,2-a]pyridin-3-yl)pyrimidin-4-yl)piperazin-1-yl)(1-methyl-1H-pyrazol-4-yl)methanone]"
